The source made the active and inactive calls. The rule behind the calls is not given here.
Experiments:
[1] = molecular target: T1, Norepinephrine transporter (Rattus norvegicus, UniProt Q9WTR4); test: (§1) Compound was tested for the ability to inhibit [3H]norepinephrine binding to Norepinephrine transporter in rat synaptosomes; assay type: subcellular, Brain
Rattus norvegicus [2] = organism: Rattus norvegicus; test: Compound was tested for its ability to inhibit [3H]dopamine uptake in rat synaptosomes; assay type: functional; conditions: Brain
[3] = selectivity is the ratio between IC50 values of 5-HTand DA
[4] = molecular target: Sodium-dependent serotonin transporter (Rattus norvegicus, UniProt P31652); test: Activity towards Serotonin transporter was determined by the ability to inhibit [3H]5-HT uptake in rat synaptosomes; assay type: subcellular, Brain
Sodium-dependent serotonin transporter, sequence (P31652 whole entry): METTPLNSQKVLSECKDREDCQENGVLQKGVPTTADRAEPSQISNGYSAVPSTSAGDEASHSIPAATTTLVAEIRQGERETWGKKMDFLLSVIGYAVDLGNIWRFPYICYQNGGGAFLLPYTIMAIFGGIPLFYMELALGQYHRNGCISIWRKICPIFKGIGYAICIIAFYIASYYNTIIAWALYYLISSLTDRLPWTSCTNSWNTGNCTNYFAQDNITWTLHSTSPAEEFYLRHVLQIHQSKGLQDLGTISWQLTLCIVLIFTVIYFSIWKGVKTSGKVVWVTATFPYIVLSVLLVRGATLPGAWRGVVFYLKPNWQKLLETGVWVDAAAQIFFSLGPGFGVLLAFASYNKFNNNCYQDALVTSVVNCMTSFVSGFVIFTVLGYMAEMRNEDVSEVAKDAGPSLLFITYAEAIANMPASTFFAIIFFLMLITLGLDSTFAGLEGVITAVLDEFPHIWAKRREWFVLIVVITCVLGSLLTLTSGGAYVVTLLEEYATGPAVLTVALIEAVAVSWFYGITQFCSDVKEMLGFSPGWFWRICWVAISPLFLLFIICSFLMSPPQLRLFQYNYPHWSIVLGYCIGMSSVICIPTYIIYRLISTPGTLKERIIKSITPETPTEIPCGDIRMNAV

Rattus norvegicus [5] = organism: Rattus norvegicus; test: Effective dose for drug discrimination assay in rats using (+)-amphetamine as training drug; assay type: functional
Rattus norvegicus [6] = organism: Rattus norvegicus; test: Effective dose for drug discrimination assay in rats using MMAI as training drug.; assay type: functional
Rattus norvegicus [7] = organism: Rattus norvegicus; test: Effective dose for drug discrimination assay in rats using (+)-Amphitamine as training drug; NS = No substitution; assay type: functional, organism-based
Rattus norvegicus [8] = organism: Rattus norvegicus; test: Effective dose for drug discrimination assay in rats using (+)-MBDB as training drug; assay type: functional
Rattus norvegicus [9] = organism: Rattus norvegicus; test: Effective dose for drug discrimination assay in rats using DOIas training drug.; assay type: functional
Rattus norvegicus [10] = organism: Rattus norvegicus; test: Effective dose for drug discrimination assay in rats using LSD as training drug.; assay type: functional
Rattus norvegicus [11] = organism: Rattus norvegicus; test: Effective dose for drug discrimination assay in rats using (+)-MBDB as training drug.; assay type: functional
Rattus norvegicus [12] = organism: Rattus norvegicus; test: Effective dose for drug discrimination assay in rats using LSD as training drug; assay type: functional
Rattus norvegicus [13] = organism: Rattus norvegicus; test: Effective dose for drug discrimination assay in rats using DOI as training drug.; assay type: functional
[14] = molecular target: T1, Norepinephrine transporter; test: as §1; assay type: functional, subcellular, Brain

T1 sequence (Q9WTR4 whole entry): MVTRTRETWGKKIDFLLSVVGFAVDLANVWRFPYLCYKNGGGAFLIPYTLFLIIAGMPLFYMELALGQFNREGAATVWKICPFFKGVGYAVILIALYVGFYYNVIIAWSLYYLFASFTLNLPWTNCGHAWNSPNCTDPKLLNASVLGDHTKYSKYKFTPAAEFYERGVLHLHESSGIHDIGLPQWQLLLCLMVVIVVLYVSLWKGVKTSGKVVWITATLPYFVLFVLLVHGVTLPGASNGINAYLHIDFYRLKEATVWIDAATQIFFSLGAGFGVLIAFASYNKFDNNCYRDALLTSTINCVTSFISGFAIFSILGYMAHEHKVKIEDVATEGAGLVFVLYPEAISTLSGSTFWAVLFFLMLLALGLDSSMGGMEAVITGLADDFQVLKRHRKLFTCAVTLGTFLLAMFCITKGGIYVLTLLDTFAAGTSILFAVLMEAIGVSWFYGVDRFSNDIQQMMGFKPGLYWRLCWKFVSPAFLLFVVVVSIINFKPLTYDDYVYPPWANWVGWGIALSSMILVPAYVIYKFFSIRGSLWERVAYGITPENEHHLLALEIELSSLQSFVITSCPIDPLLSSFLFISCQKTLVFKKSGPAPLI

| Structure (SMILES) | IC50 [1] | IC50 (Rattus norvegicus [2]) | Selectivity [3] | IC50 [4] | ED50 (Rattus norvegicus [6]) | ED50 (Rattus norvegicus [7]) | further results |
| --- | --- | --- | --- | --- | --- | --- | --- |
| CC(N)Cc1ccc(I)cc1 (stereo not drawn) [p-IODOAMPHETAMINE] | 0.993 µM | 0.589 µM | 7 | 0.082 µM |  |  |  |
| C[C@H](N)Cc1ccccc1 [DEXTROAMPHETAMINE] |  |  |  |  |  |  | ED50 (Rattus norvegicus [5]): 1.06 µmol/kg |
| CC(N)Cc1ccc2c(c1)CCC2 (stereo not drawn) | 0.849 µM |  | 23 | 0.082 µM |  |  |  |
| CSc1ccc(CC(C)N)cc1 (stereo not drawn) [4-METHYLTHIOAMPHETAMINE] | 2.38 µM | 3.07 µM | 42 | 0.074 µM |  |  |  |
| COc1cc2c(cc1C)CC(N)C2 (stereo not drawn) |  |  |  |  | 1.83 µmol/kg |  |  |
| Cc1cc2c(cc1CC(C)N)OCO2 (stereo not drawn) | 4.6 µM | 28.3 µM | 36 | 0.783 µM | 7.65 µmol/kg | inactive | ED50 (Rattus norvegicus [8]): 17.4 µmol/kg; ED50 (Rattus norvegicus [9]): 8.72 µmol/kg; ED50 (Rattus norvegicus [10]): 17.4 µmol/kg |
| CC(N)Cc1ccc2c(c1)OCO2 (stereo not drawn) [TENAMFETAMINE] | 0.266 µM | 0.89 µM | 2 | 0.478 µM |  | inactive | ED50 (Rattus norvegicus [11]): 2.07 µmol/kg |
| CCN(CC)C(=O)[C@@H]1C=C2c3cccc4[nH]cc(c34)C[C@H]2N(C)C1 [LYSERGIDE] |  |  |  |  |  |  | ED50 (Rattus norvegicus [12]): 0.04 µmol/kg |
| Cc1cc(CC(C)N)cc2c1OCO2 (stereo not drawn) | 1.49 µM | 11.6 µM | 108 | 0.107 µM | 1.53 µmol/kg | inactive | ED50 (Rattus norvegicus [11]): 2 µmol/kg; ED50 (Rattus norvegicus [9]): 2.11 µmol/kg; ED50 (Rattus norvegicus [10]): 8.72 µmol/kg |
| COc1cc(CC(C)N)c(OC)cc1I (stereo not drawn) |  |  |  |  |  |  | ED50 (Rattus norvegicus [13]): 0.3 µmol/kg |
| Cc1c(CC(C)N)ccc2c1OCO2 (stereo not drawn) |  | 12 µM | 129 | 0.093 µM | 1.71 µmol/kg | inactive | IC50 [14]: 1.94 µM; ED50 (Rattus norvegicus [11]): 1.83 µmol/kg; ED50 (Rattus norvegicus [9]): 1.7 µmol/kg; ED50 (Rattus norvegicus [10]): 4.1 µmol/kg |

Reference: ChEMBL document CHEMBL1131486, “Synthesis and pharmacological evaluation of ring-methylated derivatives of 3,4-(methylenedioxy)amphetamine (MDA)” (J Med Chem, 1998)
